Experimental data from US6596723B1, “Fungal efflux pump inhibitors” (Essential Therapeutics, Inc., priority 2001, dated 2003).
Read-outs that look alike come from different tables or passages of the source.

Tests used:
[1] = system: clinical isolates of C. tropicalis; test: potentiation of fluconazole vs. clinical isolates of C. tropicalis; assay type: cell-based; conditions: for MIC50 / MIC90: Candida tropicalis
[2] = system: clinical isolates of C. krusei; test: potentiation of fluconazole vs. clinical isolates of C. krusei; assay type: cell-based; conditions: Pichia kudriavzevii
[3] = system: clinical isolates of C. parapsilosis; test: potentiation of fluconazole vs. clinical isolates of C. parapsilosis; assay type: cell-based; conditions: Lodderomyces parapsilosis
A. fumigatus = test: potentiation of Posaconazole vs. A. fumigatus; assay type: cell-based, Aspergillus fumigatus; conditions: 15 strains
[4] = fluconazole MIC with FEPI at 16-32 μg/ml, C. tropicalis clinical isolates, read-out: MIC90 Flu + FEPI
[5] = fluconazole MIC with FEPI at 16-32 μg/ml, C. krusei clinical isolates, read-out: MIC50 Flu + FEPI
[6] = fluconazole MIC with FEPI at 16-32 μg/ml, C. krusei clinical isolates, read-out: MIC90 Flu + FEPI
[7] = fluconazole MIC with FEPI at 16-32 μg/ml, read-out: MIC50 Flu + FEPI
[8] = fluconazole MIC with FEPI at 16-32 μg/ml, read-out: MIC90 Flu + FEPI

Row | SMILES | MIC50 ([1]; read-out: MIC50 Flu only) [µg/mL] | MIC90 ([1]; read-out: MIC90 Flu only) [µg/mL] | MIC50 Flu only ([1]; listed as Flu) [µg/mL] | MIC90 ([2]; read-out: MIC90 Flu only) [µg/mL] | MIC50 ([2]; fluconazole alone, C. krusei clinical isolates, read-out: MIC50 Flu only) [µg/mL] | MIC50 ([3]; fluconazole alone, read-out: MIC50 Flu only) [µg/mL] | MIC90 ([3]; fluconazole alone, read-out: MIC90 Flu only) [µg/mL] | MIC50 ([1]; fluconazole MIC with FEPI at 16-32 μg/ml, […], read-out: MIC50 Flu + FEPI) [µg/mL] | MIC90 [1, 4] [µg/mL] | MIC50 [2, 5] [µg/mL] | MIC90 [2, 6] [µg/mL] | MIC50 [3, 7] [µg/mL] | MIC90 [3, 8] [µg/mL] | MPC8 (A. fumigatus; concentration of efflux pump inhibitor to reduce MIC of Posaconazole 8-fold) [µg/mL] | MIC (A. fumigatus; Aspergillus fumigatus, footnote: minimum inhibitor concentration of Posaconazole alone to achieve 80% inhibition) [µg/mL] | MIC50 ([1]; fluconazole MIC with FEPI at 16-32 μg/ml, C. tropicalis clinical isolates, read-out: MIC50 Flu + FEPI) [µg/mL]
1 | OC(Cn1cncn1)(Cn1cncn1)c1ccc(F)cc1F [fluconazole, reference compound] | > 128 | > 128 | 128 | > 128 | 64 | 1 | 4 |  |  |  |  |  |  |  |  | 
2 | COc1ccc(N(C(=O)Nc2cccc(Cl)c2)C(C)c2nc3ccccc3c(=O)n2N2CCN(C)CC2)c(OC)c1 (stereo not drawn) [Compound 1, 3-(3-Chloro-phenyl)-1-(2,4-dimethoxy-phenyl)-1-{1-[3-(4-methyl-piperazin-1-yl)-4-oxo-3,4-dihydro-quinazolin-2-yl]-ethyl}-urea] |  |  |  |  |  |  |  | 0.125 | 2 | 32 | > 32 | < 0.03 | 0.25 | 8 to 32 | > 32 | 
3 | COc1ccc(N(C(=O)Nc2cccc(Cl)c2)C(C)c2nc3ccccc3c(=O)n2N2CCN(CCO)CC2)c(OC)c1 (stereo not drawn) [Compound 3, 3-(3-Chloro-phenyl)-1-(2,4-dimethoxy-phenyl)-1-(1-{3-[4-(2-hydroxy-ethyl)-piperazin-1-yl]-4-oxo-3,4-dihydro-quinazolin-2-yl}-ethyl)-urea] |  |  |  |  |  |  |  |  | 8 | > 32 | > 32 | < 0.03 | 0.5 |  |  | 0.25
